For data set [1], the system named is QUAS-luc2 reporter (QF activation, QS repression) in human HeLa cells. The data set is described as follows: Dual luciferase reporter assay in transiently transfected human HeLa cells, QUAS-luc2 reporter (QF/QS). Format: cell-based. The protocol:
(§1) HeLa Cell Transfection: HeLa cells (gift of K. Wehner, Stanford University) were maintained in Dulbecco's Modified Eagle Medium (DMEM, Invitrogen, Catalog #10566), supplemented with 10% FBS and antibiotics (from 100× penicillin/streptomycin stock, Invitrogen, Catalog #15140) in a 37° C. air incubator with 5% CO2. At least 5 hours before transfection, cells were detached and dissociated from the plate using Triple-express (Invitrogen, Catalog #12605) and plated into 24-well plates at 7*10^4 cells in 0.5 ml medium with FBS, but without antibiotics. Cells were transiently transfected using Lipofectamine 2000 (Invitrogen, Catalog #11668-019), according to the manufacturer's instructions. Plasmid DNA for transfection was prepared as described in the S2 cell transfection protocol above. For each sample we used 0.25 μg DNA (total of 10 μl from 25 ng/μl stocks) including one or more of the following: 50 ng of reporter, 25 ng of a transcription factor plasmid and the amount or repressor plasmid that was adjusted according to the molarity of the corresponding transcription factor plasmid to get either equimolar, 3-fold or 5-fold higher molar concentration, as indicated.
Each sample also contained 5 ng of pGL4.75 (hRluc/CMV from Promega), which was used for normalization of the firefly luciferase signal for each sample (see below), and pBluescript to supplement the total DNA amount to 0.25 μg. The DNA was mixed in 50 μl of Opti-MEM (Invitrogen, Catalog #51985) and combined with another 50 μl of Opti-MEM containing 1 μl of Lipofectamine. The medium containing the transfection mix was replaced with DMEM containing FBS and antibiotics 22 h after transfection. Where needed, the medium contained quinic acid supplemented from 50× stocks that were made as described in the S2 cell transfection protocol above. 24 h after the medium was changed, the cells were lysed in 24-well plates and processed as described above in the S2 cell transfection protocol. All samples that were transfected with reporters had at least 100-fold higher signal than the background (lysates from pBluescript-only transfected cells). […] Plasmids used for transfection in HeLa cells were: pUAS-luc2, pQUAS-luc2, pCMV-QF, pCMV-QS, pCMV-GAL4, pCMV-GAL80, pGL4.75 (Promega), pBluescript. Higher QS:QF or GAL80:GAL4 molar ratios are required for effective suppression in HeLa cells compared with Drosophila S2 cells. This phenomenon could be due to codon choice and/or differential activity or stability of activators and repressors at different temperatures—25° C. for S2 and 37° C. for HeLa.
A general note: In a reporter assay the amount or activity of a reporter protein is the signal.

Data set [2] relates to QS inhibition of ET40-QF driven QUAS-mtdT-HA expression. The data set is described as follows: Quinic acid feeding of flies: derepression of QS (fluorescence imaging of adult flies). In kind it is in vivo, Drosophila. As to the method: (§2) Quinic acid feeding of flies: Quinic acid containing medium was made as follows: a few holes were made in standard fly medium with wooden sticks, and 0.3 ml of freshly made D-(−)-quinic acid (Sigma-Aldrich, 98%, Catalog #138622) solution dissolved in water was added per 10 ml of medium. Vials were allowed to air-dry overnight. […] For assaying the effect of quinic acid on developing animals, approximately 10 males and 15 females per vial of the genotype ET40-QF, QUAS-mtdT-3xHA (II); 82B^FRT tubP-QS (III) were allowed to lay eggs for 6 hours on quinic acid containing medium. Animals fed upon and developed in the quinic acid containing food. Adult flies were imaged within 3 days of eclosion. For assaying the effect of quinic acid feeding on adult flies, approximately 30 adult flies per vial of genotype ET40-QF, QUAS-mtdT-3xHA (II); 82B^FRT tubP-QS (III) were allowed to feed on quinic acid medium for the listed times in FIG. 3D. For feedings over multiple days, flies were transferred to fresh quinic acid containing food every two days.
Imaging of adult flies: Adult flies were imaged on a Qlmaging Retiga 2000R Cooled Monochrome Digital camera using a Discovery V8 Pentafluor System (Zeiss) with a DS RED filter cube.

The subject of another data set is Flies. Put plainly: Flies kept on food containing high doses of quinic acid. In kind it is in vivo, Drosophila. Conditions: 9 generations on food containing high doses of quinic acid. The protocol: as §2
A short description of data set [3]: Stability of quinic acid in fly food, judged by derepression activity. In kind it is physicochemical. The following applies: food stored for at least a week at 18° C. The protocol: as §2
The subject of data set [4] is UAS-luc2 reporter (GAL4 activation, GAL80 repression) in Drosophila S2 cells. Put plainly: Dual luciferase reporter assay in transiently transfected Drosophila S2 cells, UAS-luc2 reporter (GAL4/GAL80). In kind it is cell-based. The protocol:
(§3) S2 Cell Transfection: S2 cells (gift of M. Simon, Stanford University) were maintained in Shields and Sang M3 insect medium (Sigma, Catalog #S8398), prepared according to the manufacturer's instructions and supplemented with 10% heat inactivated fetal bovine serum (FBS) and antibiotics (from 100× penicillin/streptomycin stock, Invitrogen, Catalog #15140). FBS was heat inactivated at 56° C. for 30 minutes. The cells were grown in an air incubator at 25° C. For transfection, 0.4 ml of complete M3 medium containing 5*10^5 Drosophila S2 cells were plated into individual wells of 24-well plates several hours before the transfection. The DNA for transfection was mini-prepped (QIAprep Miniprep kit, Qiagen, Catalog #27106), DNA concentrations were determined using the Nanoprop 1000 spectrophotometer (Thermo Scientific), diluted in 10 mM TRIS-HCl pH 7.5, 0.1 mM EDTA to 25 ng/μl, and filtered through a 13-mm 0.2 μm filter (Nalgene, Catalog #180-1320). For individual transfections, we used 0.2 μg of total DNA (total of 8 μl from 25 ng/μl stocks) including one or more of the following: 25 ng of reporter, 12.5 ng of a transcription factor plasmid and the amount or repressor plasmid that was adjusted according to the molarity of the corresponding transcription factor plasmid to get either equimolar, 3-fold or 5-fold higher molar concentration, as indicated. Each sample also contained 2.5 ng of pPAC5C-hRluc, which was used for normalization of the firefly luciferase signal for each sample (see below) and pBluescript to supplement the total DNA amount to 0.2 μg. The cells were transfected using Effectene (Qiagen, Catalog #301425) according to the manufacturer's protocol (for each sample we used: 59 μl EC buffer; 1.6 μl enhancer solution; 4 μl Effectene and 350 μl M3 medium). 12 h after the addition of transfection mixes to cells, quinic acid was added where indicated from 50× stocks. The starting quinic acid stock solution (250 mg/ml) was prepared from D-(−)-quinic acid (Sigma-Aldrich, 98%, Catalog #138622) in sterile Milli-Q water and neutralized with NaOH to pH˜7. All other 50× stocks were made from this stock by dilution in water. Cells were lysed 24 h after the addition of quinic acid (36 h since the start of transfection), by spinning the 24-well plates for 5′ in a table top centrifuge at ˜1000 g, removing the supernatant by aspiration and incubation with of 200 μl passive lysis buffer (from the Dual Luciferase Reporter Assay System by Promega, Catalog #E1910) with shaking at room temperature for ˜30 minutes. The lysates were transferred into 1.5 ml tubes and frozen at −80° C. The lysates were analyzed using the Dual Luciferase Reporter Assay System, according to the manufacturer's instructions, and the single tube Turner Biosystems luminometer, model 20/20n. The luminescence light signal for both firefly and Renilla luciferases was collected for 10 s. All samples that were transfected with reporters had at least 100-fold higher signal than the background (lysates from pBluescript-only transfected cells). For each sample “X”, the relative luciferase activity (RLA) was calculated according to the following formula: […] where n=number of QUAS-only samples; F=Firefly luciferase luminescence signal; R=Renilla luciferase luminescence signal. Each condition was executed at least in triplicate, the average and SEM were determined for each condition, and statistical significance was evaluated using Student's t-test. […]

The subject of data set [5] is QUAS-luc2 reporter (QF activation, QS repression) in Drosophila S2 cells. Put plainly: Dual luciferase reporter assay in transiently transfected Drosophila S2 cells, QUAS-luc2 reporter (QF/QS). Format: cell-based. The protocol: as §3
For data set [6], the system named is UAS-luc2 reporter (GAL4 activation) in human HeLa cells. Put plainly: Dual luciferase reporter assay in transiently transfected human HeLa cells, UAS-luc2 reporter (GAL4). In kind it is cell-based. As to the method:
as §1
Each sample also contained 5 ng of pGL4.75 (hRluc/CMV from Promega), which was used for normalization of the firefly luciferase signal for each sample (see below), and pBluescript to supplement the total DNA amount to 0.25 μg. […]

The mark [7] stands for this setting: adult flies transferred to quinic acid-containing food.

Regarding `O=C(O)[C@]1(O)C[C@@H](O)[C@@H](O)[C@H](O)C1` [quinic acid, D-(−)-quinic acid], in data set [1], the “effect on QF-dependent transcription of QUAS” value is “no effect”. Further, the “suppression of QS in mammalian cells” value in data set [1] (also observed in COS cells) is listed as “does not suppress QS”. Also, the “further suppression of QUAS activation in the presence of QF and 5xQS” value in data set [1] (two higher QA concentrations tested (250 μg/ml, 5 mg/ml)) was around 13 fold. In addition, the “derepression in flies fed for up to 10 days compared with 5 days” value in data set [2] (adult flies on quinic acid food) is recorded as “no more derepression”. In data set [2] (setting [7]), the “time after which reversion of suppression could be seen” value was found to be 6 h, the “time of marked reversion of suppression” value is recorded as 24 h and the “time of saturation of reversion of suppression” value was at most 5 days. Further, the “reversion of QS inhibition of ET40-QF driven QUAS-mtdT-HA expression with increasing doses” value in data set [2] (quinic acid added to fly food on which flies developed) was “increasingly reverted”. In addition, the abnormalities in flies result with Flies is “no noticeable abnormalities”. Moreover, the stability in food entry in data set [3] was “appears to be stable”. For the same molecule, in data set [4] (high concentration (5 mg/ml)), the “derepression of GAL4 (effect on GAL80 repression of GAL4)” value was around 1.5 fold and the “effect on Gal4 activation of UAS” value was “no effect”. In data set [5], the “suppression of QS to restore QF-based transcription” value is on record as “significantly suppressed QS”. Also, in data set [5] (high concentration (5 mg/ml)), the “effect on QF activation of QUAS” value is “no effect”. In addition, in data set [5] (highest QA concentration tested (QA3=5 mg/ml), 24 h), the “re-activation of QUAS compared to the control sample with QUAS, QF and 5xQS” value is reported as around 23 fold.

B1: GAL4: budding yeast transcription factor of the GAL4/UAS binary expression system (protein, UniProt P04386 1-881, looked up)
Regulatory protein GAL4: MKLLSSIEQACDICRLKKLKCSKEKPKCAKCLKNNWECRYSPKTKRSPLTRAHLTEVESRLERLEQLFLLIFPREDLDMILKMDSLQDIKALLTGLFVQDNVNKDAVTDRLASVETDMPLTLRQHRISATSSSEESSNKGQRQLTVSIDSAAHHDNSTIPLDFMPRDALHGFDWSEEDDMSDGLPFLKTDPNNNGFFGDGSLLCILRSIGFKPENYTNSNVNRLPTMITDRYTLASRSTTSRLLQSYLNNFHPYCPIVHSPTLMMLYNNQIEIASKDQWQILFNCILAIGAWCIEGESTDIDVFYYQNAKSHLTSKVFESGSIILVTALHLLSRYTQWRQKTNTSYNFHSFSIRMAISLGLNRDLPSSFSDSSILEQRRRIWWSVYSWEIQLSLLYGRSIQLSQNTISFPSSVDDVQRTTTGPTIYHGIIETARLLQVFTKIYELDKTVTAEKSPICAKKCLMICNEIEEVSRQAPKFLQMDISTTALTNLLKEHPWLSFTRFELKWKQLSLIIYVLRDFFTNFTQKKSQLEQDQNDHQSYEVKRCSIMLSDAAQRTVMSVSSYMDNHNVTPYFAWNCSYYLFNAVLVPIKTLLSNSKSNAENNETAQLLQQINTVLMLLKKLATFKIQTCEKYIQVLEEVCAPFLLSQCAIPLPHISYNNSNGSAIKNIVGSATIAQYPTLPEENVNNISVKYVSPGSVGPSPVPLKSGASFSDLVKLLSNRPPSRNSPVTIPRSTPSHRSVTPFLGQQQQLQSLVPLTPSALFGGANFNQSGNIADSSLSFTFTNSSNGPNLITTQTNSQALSQPIASSNVHDNFMNNEITASKIDDGNNSKPLSPGWTDQTAYNAFGITTGMFNTTTMDDVYNYLFDDEDTPPNPKKE
As to B1, in data set [6], the “induction of UAS” value is listed as around 1000 fold. For the same molecule, in data set [4], the “higher inducibility than QF/QUAS” value is recorded as around 1.6 fold and the “induction of luc2 expression from UAS-luc2” value is recorded as ~5,300 fold. For the same molecule, the “GAL4 activation of QUAS, fold less than that of UAS” value in data set [5] (cross-activation) is around 200 fold.

B2: QF: transcriptional activator from the Neurospora crassa qa gene cluster, binds 16-base pair sequence (QUAS) (protein, UniProt P11638 1-816, looked up)
Transcription factor qa-1f: MPPKRKTLNAAAEANAHADGHADGNADGHVANTAASSNNARFADLTNIDTPGLGPTTTTLLVEPARSKRQRVSRACDQCRAAREKCDGIQPACFPCVSQGRSCTYQASPKKRGVQTGYIRTLELALAWMFENVARSEDALHNLLVRDAGQGSALLVGKDSPAAERLHARWATSRVNKSITRLLSGQAAQDPSEDGQSPSEDINVQDAGAKTSDFPHAPHLTFSAPKSSTAETRTLPGPVRPPISANTLENNLQPDGTGIGKLPPNHWRLLDIYFSYTHSWLPILEKKDMYQALYQYSEQGSLLPSANVESGVHAELWSALALASFQAAATAASSATGPASAAHGHDNAINPSPADISDTARKLIPLESGPFQVQHCRALLLLCLVSLGRDDWESAWLLVGFAVRVLLVVRTQLPPDDDRPRPRMRALLVACFIVDTIVSMRHNVPAHLKPDDIADLPLPEDGQDQWEPWTPCEGLGGEHTMLQMLRNPAYPLSTFNHLYGVTKLVALELLPRIRTSSQNAPLEFRSRLQQVIGHNSPFSVFVLSQDTASAFVPTAYLTRTVYLWAAAFSEPLNEHYSHLLIETLDQYQKRFGTYAIPPLIPSLLDSLLALKKQSHSSERHRRHLEELFPAYSSIWPRGGRHSNTGLQPIRQLELPPTATATASIMPHVMEQPLSTSINPVNDRFNGIPNPTPYNSDAALDAITQTNDYGSVNTHGILSTYPPPATHLNEASVALAPGGAPPRPPPPYVDSTTNHPPYHSNLVPMANFGYSTVDYDAMVDDLASIEYTDAVDVDPQFMTNLGFVPGCNFSDISTYEQ
For the molecule B2, the “induction of expression from QUAS” value in data set [1] is around 24.000 fold. Further, in data set [4] (cross-activation), the “QF activation of UAS, fold less than that of QUAS” value was ~1,500 fold. Also, the “enhancement of luc2 expression from QUAS-luc2 compared with QUAS-luc2 alone” value in data set [5] is listed as around 3.300 fold.
